# Reference: PubChem BioAssay (NCI)
#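 Grown in 96-well plates, cells were treated for 48 hours with each compound at five concentrations. Insufficient inhibition: endpoint recorded as highest concentration tested. TGI: concentration producing complete growth inhibition.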
# Tests used:
# Experiment in all cases: DTP human tumour cell line panel, 48 h
# KM20L2 colon = test system: KM20L2 colon
# SF-268 CNS = test system: SF-268 CNS
# LXFL 529 NSCLC = test system: LXFL 529 NSCLC
# A549 NSCLC = test system: A549 NSCLC
# LOX IMVI melanoma = test system: LOX IMVI melanoma
# A498 renal = test system: A498 renal
# SW-620 colon = test system: SW-620 colon
# UACC-62 melanoma = test system: UACC-62 melanoma
# M19-MEL melanoma = test system: M19-MEL melanoma
# HCT-116 colon = test system: HCT-116 colon
# KM12 colon = test system: KM12 colon
# K-562 leukemia = test system: K-562 leukemia
# XF 498 CNS = test system: XF 498 CNS
# SK-MEL-5 melanoma = test system: SK-MEL-5 melanoma
# CCRF-CEM leukemia = test system: CCRF-CEM leukemia
# SK-MEL-28 melanoma = test system: SK-MEL-28 melanoma
# TK-10 renal = test system: TK-10 renal
# NCI-H23 lung = test system: NCI-H23 lung
# NCI-H522 lung = test system: NCI-H522 lung
# OVCAR-3 ovarian = test system: OVCAR-3 ovarian
# HOP-62 NSCLC = test system: HOP-62 NSCLC
# RXF-631 renal = test system: RXF-631 renal
# OVCAR-4 ovarian = test system: OVCAR-4 ovarian
# HT29 colon = test system: HT29 colon
# NCI-H460 lung = test system: NCI-H460 lung
# HOP-92 NSCLC = test system: HOP-92 NSCLC
# OVCAR-5 ovarian = test system: OVCAR-5 ovarian
# RXF 393 renal = test system: RXF 393 renal
# HCT-15 colon = test system: HCT-15 colon
# DLD-1 colon = test system: DLD-1 colon
# SK-MEL-2 melanoma = test system: SK-MEL-2 melanoma
# HOP-18 NSCLC = test system: HOP-18 NSCLC
# DMS 273 small cell lung = test system: DMS 273 small cell lung
# OVCAR-8 ovarian = test system: OVCAR-8 ovarian
# HL-60(TB) leukemia = test system: HL-60(TB) leukemia
# M14 melanoma = test system: M14 melanoma
# MOLT-4 leukemia = test system: MOLT-4 leukemia
# SN12C renal = test system: SN12C renal
# SF-539 CNS = test system: SF-539 CNS
# SNB-19 CNS = test system: SNB-19 CNS
# ACHN renal = test system: ACHN renal
# IGROV1 ovarian = test system: IGROV1 ovarian
# EKVX NSCLC = test system: EKVX NSCLC
# 786-0 renal = test system: 786-0 renal
# NCI-H226 lung = test system: NCI-H226 lung
# HCC-2998 colon = test system: HCC-2998 colon
# RPMI-8226 leukemia = test system: RPMI-8226 leukemia
# MALME-3M melanoma = test system: MALME-3M melanoma
# U251 CNS = test system: U251 CNS
# SF-295 CNS = test system: SF-295 CNS
# SNB-75 CNS = test system: SNB-75 CNS
# CAKI-1 renal = test system: CAKI-1 renal
# UO-31 renal = test system: UO-31 renal
# DMS 114 small cell lung = test system: DMS 114 small cell lung
# UACC-257 melanoma = test system: UACC-257 melanoma
# SK-OV-3 ovarian = test system: SK-OV-3 ovarian
# COLO 205 colon = test system: COLO 205 colon
# SNB-78 CNS = test system: SNB-78 CNS
smiles,measurement,setting,value
CCOC(=O)/C(=C/c1ccccc1Br)P(=O)(OCC)OCC,TGI,KM20L2 colon,5.67 µM
same,TGI,SF-268 CNS,10.5 µM
same,TGI,LXFL 529 NSCLC,2.92 µM
same,TGI,A549 NSCLC,10.7 µM
same,TGI,LOX IMVI melanoma,3.09 µM
same,TGI,A498 renal,8.61 µM
same,TGI,SW-620 colon,4.45 µM
same,TGI,UACC-62 melanoma,3.29 µM
same,TGI,M19-MEL melanoma,3.68 µM
same,TGI,HCT-116 colon,10.1 µM
same,TGI,KM12 colon,4.52 µM
same,TGI,K-562 leukemia,2 µM
same,TGI,XF 498 CNS,3.56 µM
same,TGI,SK-MEL-5 melanoma,3.51 µM
same,TGI,CCRF-CEM leukemia,3.16 µM
same,TGI,SK-MEL-28 melanoma,4.66 µM
same,TGI,TK-10 renal,7.98 µM
same,TGI,NCI-H23 lung,4.09 µM
same,TGI,NCI-H522 lung,2.32 µM
same,TGI,OVCAR-3 ovarian,5.46 µM
same,TGI,HOP-62 NSCLC,12 µM
same,TGI,RXF-631 renal,8.45 µM
same,TGI,OVCAR-4 ovarian,4.2 µM
same,TGI,HT29 colon,13.9 µM
same,TGI,NCI-H460 lung,10.7 µM
same,TGI,HOP-92 NSCLC,3.45 µM
same,TGI,OVCAR-5 ovarian,5.92 µM
same,TGI,RXF 393 renal,2.44 µM
same,TGI,HCT-15 colon,5.87 µM
same,TGI,DLD-1 colon,4.85 µM
same,TGI,SK-MEL-2 melanoma,3.7 µM
same,TGI,HOP-18 NSCLC,10.7 µM
same,TGI,DMS 273 small cell lung,3.04 µM
same,TGI,OVCAR-8 ovarian,8.09 µM
same,TGI,HL-60(TB) leukemia,1.94 µM
same,TGI,M14 melanoma,2.95 µM
same,TGI,MOLT-4 leukemia,5.35 µM
same,TGI,SN12C renal,5.76 µM
same,TGI,SF-539 CNS,6.22 µM
same,TGI,SNB-19 CNS,6.21 µM
same,TGI,ACHN renal,6 µM
same,TGI,IGROV1 ovarian,10.1 µM
same,TGI,EKVX NSCLC,8.16 µM
same,TGI,786-0 renal,2.66 µM
same,TGI,NCI-H226 lung,6.89 µM
same,TGI,HCC-2998 colon,3.24 µM
same,TGI,RPMI-8226 leukemia,3.36 µM
same,TGI,MALME-3M melanoma,3.47 µM
same,TGI,U251 CNS,3.18 µM
same,TGI,SF-295 CNS,12.2 µM
same,TGI,SNB-75 CNS,6.02 µM
same,TGI,CAKI-1 renal,4.3 µM
CN(C)c1ccc(/C=c2\sc3nnc(-c4cccnc4)n3c2=O)cc1,TGI,KM20L2 colon,> 100 µM
same,TGI,SF-268 CNS,> 100 µM
same,TGI,LXFL 529 NSCLC,> 100 µM
same,TGI,A549 NSCLC,> 100 µM
same,TGI,LOX IMVI melanoma,> 100 µM
same,TGI,A498 renal,> 100 µM
same,TGI,SW-620 colon,> 100 µM
same,TGI,UACC-62 melanoma,> 100 µM
same,TGI,M19-MEL melanoma,> 100 µM
same,TGI,HCT-116 colon,> 100 µM
same,TGI,KM12 colon,> 100 µM
same,TGI,K-562 leukemia,> 100 µM
same,TGI,XF 498 CNS,> 100 µM
same,TGI,UO-31 renal,> 100 µM
same,TGI,SK-MEL-5 melanoma,> 100 µM
same,TGI,CCRF-CEM leukemia,> 100 µM
same,TGI,SK-MEL-28 melanoma,> 100 µM
same,TGI,TK-10 renal,> 100 µM
same,TGI,NCI-H23 lung,> 100 µM
same,TGI,NCI-H522 lung,> 100 µM
same,TGI,OVCAR-3 ovarian,> 100 µM
same,TGI,HOP-62 NSCLC,> 100 µM
same,TGI,OVCAR-4 ovarian,> 100 µM
same,TGI,DMS 114 small cell lung,> 100 µM
same,TGI,NCI-H460 lung,> 100 µM
same,TGI,HOP-92 NSCLC,> 100 µM
same,TGI,OVCAR-5 ovarian,> 100 µM
same,TGI,RXF 393 renal,> 100 µM
same,TGI,HCT-15 colon,> 100 µM
same,TGI,UACC-257 melanoma,> 100 µM
same,TGI,DLD-1 colon,> 100 µM
same,TGI,SK-OV-3 ovarian,> 100 µM
same,TGI,SK-MEL-2 melanoma,> 100 µM
same,TGI,COLO 205 colon,> 100 µM
same,TGI,HOP-18 NSCLC,> 100 µM
same,TGI,DMS 273 small cell lung,> 100 µM
same,TGI,OVCAR-8 ovarian,> 100 µM
same,TGI,HL-60(TB) leukemia,> 100 µM
same,TGI,M14 melanoma,> 100 µM
same,TGI,MOLT-4 leukemia,> 100 µM
same,TGI,SN12C renal,> 100 µM
same,TGI,SF-539 CNS,> 100 µM
same,TGI,SNB-19 CNS,> 100 µM
same,TGI,SNB-78 CNS,> 100 µM
same,TGI,ACHN renal,> 100 µM
same,TGI,IGROV1 ovarian,> 100 µM
same,TGI,EKVX NSCLC,> 100 µM
same,TGI,786-0 renal,> 100 µM
same,TGI,NCI-H226 lung,> 100 µM
same,TGI,HCC-2998 colon,> 100 µM
same,TGI,RPMI-8226 leukemia,> 100 µM
same,TGI,MALME-3M melanoma,> 100 µM
same,TGI,U251 CNS,> 100 µM
same,TGI,SF-295 CNS,> 100 µM
same,TGI,SNB-75 CNS,> 100 µM
same,TGI,CAKI-1 renal,> 100 µM
Cn1c2cc([N+](=O)[O-])ccc2c(=O)c2c(O)cc3c(c21)C=CC(C)(C)O3,TGI,KM20L2 colon,> 100 µM
same,TGI,SF-268 CNS,> 100 µM
same,TGI,LXFL 529 NSCLC,> 100 µM
same,TGI,A549 NSCLC,> 100 µM
same,TGI,LOX IMVI melanoma,> 100 µM
same,TGI,A498 renal,> 100 µM
same,TGI,SW-620 colon,> 100 µM
same,TGI,UACC-62 melanoma,> 100 µM
same,TGI,KM12 colon,> 100 µM
same,TGI,K-562 leukemia,> 100 µM
same,TGI,XF 498 CNS,47.7 µM
same,TGI,UO-31 renal,67.6 µM
same,TGI,SK-MEL-5 melanoma,> 100 µM
same,TGI,CCRF-CEM leukemia,> 100 µM
same,TGI,SK-MEL-28 melanoma,> 100 µM
same,TGI,TK-10 renal,89.1 µM
same,TGI,NCI-H23 lung,> 100 µM
same,TGI,NCI-H522 lung,> 100 µM
same,TGI,OVCAR-4 ovarian,> 100 µM
same,TGI,HT29 colon,> 100 µM
same,TGI,NCI-H460 lung,> 100 µM
same,TGI,OVCAR-5 ovarian,80.4 µM
same,TGI,RXF 393 renal,74.5 µM
same,TGI,HCT-15 colon,> 100 µM
same,TGI,UACC-257 melanoma,> 100 µM
same,TGI,DLD-1 colon,> 100 µM
same,TGI,SK-OV-3 ovarian,87.8 µM
same,TGI,SK-MEL-2 melanoma,> 100 µM
same,TGI,COLO 205 colon,> 100 µM
same,TGI,DMS 273 small cell lung,> 100 µM
same,TGI,OVCAR-8 ovarian,> 100 µM
same,TGI,HL-60(TB) leukemia,> 100 µM
same,TGI,M14 melanoma,> 100 µM
same,TGI,MOLT-4 leukemia,> 100 µM
same,TGI,SN12C renal,> 100 µM
same,TGI,SF-539 CNS,32.4 µM
same,TGI,SNB-19 CNS,73 µM
same,TGI,SNB-78 CNS,> 100 µM
same,TGI,ACHN renal,> 100 µM
same,TGI,IGROV1 ovarian,> 100 µM
same,TGI,EKVX NSCLC,> 100 µM
same,TGI,786-0 renal,> 100 µM
same,TGI,HCC-2998 colon,> 100 µM
same,TGI,RPMI-8226 leukemia,> 100 µM
same,TGI,MALME-3M melanoma,> 100 µM
same,TGI,U251 CNS,> 100 µM
same,TGI,SF-295 CNS,47.1 µM
same,TGI,SNB-75 CNS,25.7 µM
same,TGI,CAKI-1 renal,> 100 µM
O=C(Nc1ccccc1)c1cccc([N+](=O)[O-])c1,TGI,KM20L2 colon,> 100 µM
same,TGI,SF-268 CNS,> 100 µM
same,TGI,A549 NSCLC,> 100 µM
same,TGI,A498 renal,> 100 µM
same,TGI,SW-620 colon,> 100 µM
same,TGI,UACC-62 melanoma,> 100 µM
same,TGI,M19-MEL melanoma,> 100 µM
same,TGI,HCT-116 colon,> 100 µM
same,TGI,K-562 leukemia,> 100 µM
same,TGI,XF 498 CNS,> 100 µM
same,TGI,SK-MEL-5 melanoma,> 100 µM
same,TGI,CCRF-CEM leukemia,> 100 µM
same,TGI,SK-MEL-28 melanoma,> 100 µM
same,TGI,OVCAR-3 ovarian,> 100 µM
same,TGI,HOP-62 NSCLC,> 100 µM
same,TGI,DMS 114 small cell lung,> 100 µM
same,TGI,HT29 colon,> 100 µM
same,TGI,HOP-92 NSCLC,> 100 µM
same,TGI,HCT-15 colon,> 100 µM
same,TGI,COLO 205 colon,> 100 µM
same,TGI,HOP-18 NSCLC,> 100 µM
same,TGI,DMS 273 small cell lung,> 100 µM
same,TGI,OVCAR-8 ovarian,> 100 µM
same,TGI,MOLT-4 leukemia,> 100 µM
same,TGI,SN12C renal,> 100 µM
same,TGI,SF-539 CNS,> 100 µM
same,TGI,SNB-19 CNS,> 100 µM
same,TGI,SNB-78 CNS,> 100 µM
same,TGI,ACHN renal,> 100 µM
same,TGI,IGROV1 ovarian,> 100 µM
same,TGI,EKVX NSCLC,> 100 µM
same,TGI,786-0 renal,> 100 µM
same,TGI,HCC-2998 colon,> 100 µM
same,TGI,RPMI-8226 leukemia,> 100 µM
same,TGI,MALME-3M melanoma,> 100 µM
same,TGI,U251 CNS,> 100 µM
same,TGI,SNB-75 CNS,> 100 µM
same,TGI,CAKI-1 renal,> 100 µM
